Read-outs that look alike come from different tables or passages of the source.
What was measured:
[1] = biological target: human activated kallikrein enzyme (Homo sapiens, UniProt P03952); assay: Plasma kallikrein inhibition, fluorogenic PFR-AMC substrate, 500 pM activated kallikrein format; assay type: biochemical; settings: 300 uM PFR-AMC, 30 min preincubation, 10 min reaction
Method in brief: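 Fluorogenic readout (ex 380 / em 460 nm) after 10 min room-temperature reaction with 300 uM Pro-Phe-Arg-AMC substrate, following 30 min preincubation of inhibitors with 500 pM enzyme. Buffer: Tris pH 7.5, EDTA, NaCl, PEG-400, Triton X-100. Values given as EC50 ranges.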

plasma kallikrein = biological target: T1, plasma kallikrein (Homo sapiens, UniProt P03952); assay: Neat human plasma assay, FXIIa contact pathway-activated, PFR-AMC substrate; assay type: biochemical; settings: read-out: Human Plasma Assay: IC90
T1 construct: from tissue
Method in brief: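 Compound inhibition of plasma kallikrein measured as PFR-AMC (100 μM) cleavage rate over 5 min at room temperature in 78% citrated human plasma activated with 10 nM FXIIa (Tris pH 7.5 buffer). IC50/IC90 from 4-parameter fit of rate versus inhibitor concentration.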

[2] = 500 pM activated kallikrein, read-out: Primary Dose Response Assay: Average EC50
[3] = citrated human plasma 78% final, 10 nM human FXIIa, 100 μM PFR-AMC

Chain of human activated kallikrein enzyme (P03952 391-638 limits assumed): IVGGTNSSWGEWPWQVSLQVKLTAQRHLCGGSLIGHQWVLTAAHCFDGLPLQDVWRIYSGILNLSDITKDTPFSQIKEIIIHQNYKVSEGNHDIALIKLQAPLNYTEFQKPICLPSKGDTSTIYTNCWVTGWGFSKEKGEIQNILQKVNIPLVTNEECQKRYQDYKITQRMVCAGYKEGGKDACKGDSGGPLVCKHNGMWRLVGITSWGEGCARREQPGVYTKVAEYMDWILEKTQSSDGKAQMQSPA
Chain of human activated kallikrein enzyme (P03952 20-390 partner limits assumed): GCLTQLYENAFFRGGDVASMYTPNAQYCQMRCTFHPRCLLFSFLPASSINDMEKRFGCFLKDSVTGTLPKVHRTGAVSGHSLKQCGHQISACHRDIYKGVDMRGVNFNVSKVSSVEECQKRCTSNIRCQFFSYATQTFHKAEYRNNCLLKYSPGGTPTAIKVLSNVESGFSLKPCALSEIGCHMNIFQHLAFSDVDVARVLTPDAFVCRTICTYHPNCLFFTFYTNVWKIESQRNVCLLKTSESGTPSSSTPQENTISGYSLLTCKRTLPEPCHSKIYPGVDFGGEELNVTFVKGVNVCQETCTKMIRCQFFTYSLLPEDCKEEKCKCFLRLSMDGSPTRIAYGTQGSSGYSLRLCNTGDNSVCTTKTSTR
T1 sequence (P03952 391-638 limits assumed): as the sequence (P03952 391-638 limits assumed) above
T1 sequence (P03952 20-390 partner limits assumed): as the sequence (P03952 20-390 partner limits assumed) above

| Structure (SMILES) | EC50 [1, 2] [nM] | IC90 (plasma kallikrein; [3]) [nM] | EC50 ([1]; Primary Dose Response Assay: Average EC50, 500 pM activated kallikrein) [nM] | IC90 (plasma kallikrein) [nM] |
| --- | --- | --- | --- | --- |
| Cc1ccnc([C@H]2C[C@@H]2C(=O)Nc2nc(NCc3cn4cc(C5CC5)cc(N5CC(=O)N(C)C5=O)c4n3)cc(C3CC3)n2)n1 (racemic) [Example 539, rac-(1S*,2S*)—N-(4-cyclopropyl-6-(((6-cyclopropyl-8-(3-methyl-2,4-dioxoimidazolidin-1-yl)imidazo[1,2-a]pyridin-2-yl)methyl)amino)pyrimidin-2-yl)-2-(4-methylpyrimidin-2-yl)cyclopropane-1-carboxamide] | < 1 | 1500 to 10000 |  |  |
| O=C(Nc1cc(N2C[C@@H](O)C[C@@H]2c2cn3cc(C4CC4)ccc3n2)ncn1)[C@H]1C[C@@H]1c1cccc(Cl)c1 [Example 283, (1S,2S)-2-(3-chlorophenyl)-N-(6-((2R,4S)-2-(6-cyclopropylimidazo[1,2-a]pyridin-2-yl)-4-hydroxypyrrolidin-1-yl)pyrimidin-4-yl)cyclopropane-1-carboxamide] | 1 to 10 | 1500 to 10000 |  |  |
| Cc1ccnc([C@H]2C[C@@H]2C(=O)Nc2nc(C)nc(NCc3cn4cc(C5CC5)cc(N5CC(=O)N(C)C5=O)c4n3)n2)n1 (racemic) [Example 525, rac-(1S*,2S*)-N-(4-(((6-cyclopropyl-8-(3-methyl-2,4-dioxoimidazolidin-1-yl)imidazo[1,2-a]pyridin-2-yl)methyl)amino)-6-methyl-1,3,5-triazin-2-yl)-2-(4-methylpyrimidin-2-yl)cyclopropane-1-carboxamide] | < 1 | < 400 |  |  |
| O=C(Nc1cc(NCc2cn3cc(C4CC4)cc(N4CCOC4=O)c3n2)ncn1)[C@H]1C[C@@H]1c1cc(Cl)ccn1 (racemic) [Example I-173, rac-(1S*,2S*)-2-(4-chloropyridin-2-yl)-N-(6-(((6-cyclopropyl-8-(2-oxooxazolidin-3-yl)imidazo[1,2-a]pyridin-2-yl)methyl)amino)pyrimidin-4-yl)cyclopropane-1-carboxamide] | < 1 | 400 to 1500 |  |  |
| Cc1ccnc([C@H]2C[C@@H]2C(=O)Nc2cc(OCc3cn4cc(C5CC5)ccc4n3)cnn2)n1 [Example 568, (1S,2S)-N-(5-((6-cyclopropylimidazo[1,2-a]pyridin-2-yl)methoxy)pyridazin-3-yl)-2-(4-methylpyrimidin-2-yl)cyclopropane-1-carboxamide] | < 1 | 1500 to 10000 |  |  |
| O=C(Nc1cc(NCc2cn3cc(C4CC4)ccc3n2)cc(O)n1)[C@H]1C[C@@H]1c1cccc(Cl)c1 [Example 611, (1S,2S)-2-(3-chlorophenyl)-N-(4-(((6-cyclopropylimidazo[1,2-a]pyridin-2-yl)methyl)amino)-6-hydroxypyridin-2-yl)cyclopropane-1-carboxamide] | < 1 | 1500 to 10000 |  |  |
| Cc1ccnc([C@H]2C[C@@H]2C(=O)Nc2cc(NCc3cn4cc(C5CC5)cc(S(C)(=O)=O)c4n3)ncn2)n1 (racemic) [Example 322, rac-(1S*,2S*)—N-(6-(((6-cyclopropyl-8-(methylsulfonyl)imidazo[1,2-a]pyridin-2-yl)methyl)amino)pyrimidin-4-yl)-2-(4-methylpyrimidin-2-yl)cyclopropane-1-carboxamide] | < 1 | 400 to 1500 |  |  |
| Cc1ccnc([C@H]2C[C@@H]2C(=O)Nc2cc(NCc3cn4cc(C5CC5)cc(S(C)(=O)=O)c4n3)ncn2)n1 (single isomer, unassigned) [Example 324] | < 1 | 400 to 1500 |  |  |
| Cc1ccnc([C@H]2C[C@@H]2C(=O)Nc2cc(N(C)C(C)c3cn4cc(C5CC5)cc(N5CC(=O)N(C)C5=O)c4n3)ncn2)n1 (stereo partly drawn) [Example 369, (1S,2S)-N-(6-((1-(6-cyclopropyl-8-(3-methyl-2,4-dioxoimidazolidin-1-yl)imidazo[1,2-a]pyridin-2-yl)ethyl)(methyl)amino)pyrimidin-4-yl)-2-(4-methylpyrimidin-2-yl)cyclopropane-1-carboxamide] | 1 to 10 | 1500 to 10000 |  |  |
| N#CCCc1cc(C2CC2)cn2cc(CNc3ccnc(NC(=O)[C@H]4C[C@@H]4c4cccc(Cl)c4)c3)nc12 (racemic) [Example 87, rac-(1S*,2S*)-2-(3-chlorophenyl)-N-(4-(((8-(2-cyanoethyl)-6-cyclopropylimidazo[1,2-a]pyridin-2-yl)methyl)amino)pyridin-2-yl)cyclopropane-1-carboxamide] | 1 to 10 | 10000 to 48000 |  |  |
| CN1C(=O)CN(c2cc(C3CC3)cn3cc(CNc4cc(NC(=O)[C@H]5C[C@@H]5c5nccc(CF)n5)ncn4)nc23)C1=O (racemic) [Example I-163, rac-(1S*,2S*)-N-(6-(((6-cyclopropyl-8-(3-methyl-2,4-dioxoimidazolidin-1-yl)imidazo[1,2-a]pyridin-2-yl)methyl)amino)pyrimidin-4-yl)-2-(4-(fluoromethyl)pyrimidin-2-yl)cyclopropane-1-carboxamide] | < 1 | 400 to 1500 |  |  |
| Cc1ccnc([C@H]2C[C@@H]2C(=O)Nc2cc(N[C@H](C)c3cn4cc(CF)cc(N5CC(=O)N(C)C5=O)c4n3)ncn2)n1 [Example 678, (1S,2S)—N-(6-(((R)-1-(6-(fluoromethyl)-8-(3-methyl-2,4-dioxoimidazolidin-1-yl)imidazo[1,2-a]pyridin-2-yl)ethyl)amino)pyrimidin-4-yl)-2-(4-methylpyrimidin-2-yl)cyclopropane-1-carboxamide] |  |  | < 1 | < 400 |
| CN1CC(F)(c2cc(C3CC3)cn3cc(CNc4ccnc(NC(=O)[C@H]5C[C@@H]5c5cccc(Cl)c5)c4)nc23)C1 [Example I-227, (1S,2S)-2-(3-chlorophenyl)-N-(4-(((6-cyclopropyl-8-(3-fluoro-1-methylazetidin-3-yl)imidazo[1,2-a]pyridin-2-yl)methyl)amino)pyridin-2-yl)cyclopropane-1-carboxamide] | < 1 | < 400 |  |  |
| O=C(Nc1cc(NCc2cn3cc(C4CC4)cc(N4CCNCC4=O)c3n2)ncn1)[C@H]1C[C@@H]1c1cccc(Cl)c1 [Example I-647, (1S,2S)-2-(3-chlorophenyl)-N-(6-(((6-cyclopropyl-8-(2-oxopiperazin-1-yl)imidazo[1,2-a]pyridin-2-yl)methyl)amino)pyrimidin-4-yl)cyclopropane-1-carboxamide] | < 1 | 400 to 1500 |  |  |
| O=C(Nc1cc(NCc2cn3cc(C4CC4)cc(N4CCN5CC(O)CC5C4)c3n2)ccn1)[C@H]1C[C@@H]1c1cccc(Cl)c1 (stereo partly drawn) [Example I-228, (1S,2S)-2-(3-chlorophenyl)-N-(4-(((6-cyclopropyl-8-(7-hydroxyhexahydropyrrolo[1,2-a]pyrazin-2(1H)-yl)imidazo[1,2-a]pyridin-2-yl)methyl)amino)pyridin-2-yl)cyclopropane-1-carboxamide] | < 1 | 400 to 1500 |  |  |
| O=C(Nc1cc(NCc2cn3cc(C4CC4)cc(N4CCOC4=O)c3n2)ncn1)[C@H]1C[C@@H]1c1cccc(Cl)c1 [Example I-174, (1S,2S)-2-(3-chlorophenyl)-N-(6-(((6-cyclopropyl-8-(2-oxooxazolidin-3-yl)imidazo[1,2-a]pyridin-2-yl)methyl)amino)pyrimidin-4-yl)cyclopropane-1-carboxamide] | < 1 | 1500 to 10000 |  |  |
